Source: patent US20240270762A1, “PENICILLIN-BINDING PROTEIN INHIBITORS” (priority 2021, published 2024)
Converted amounts (≈) assume the structure as drawn.

How the values were obtained:
[1] = tested on: B. thailandensis ATCC 700388; experiment: microbe, parasite or virus in culture; assay type: cell-based; conditions: Burkholderia thailandensis, ATCC700388, read-out: Minimum inhibitory concentration (MIC), B. thailandensis ATCC 700388
[2] = molecular target: T1, PBP3 from Escherichia coli (K-12) (Escherichia coli, UniProt P0AD68); experiment: Bocillin-FL fluorescence polarization competition binding, E. coli PBP3
T1 construct: made in house
Summary of the method: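 Purified PBP was preincubated with inhibitor (E. coli PBP3 1.5 μM, 30 min; P. aeruginosa PBP3 0.75 μM, A. baumannii PBP3 0.2 μM and PBP1a 1 μM, 15 min), then Bocillin-FL (0.1 μM; 0.05 μM for PBP1a) added and FP read up to 60 min. EC50 = 50% loss of bound probe.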

N. gonorrhoeae WHO L = experiment: Liquid broth MIC in Fastidious broth; conditions: Neisseria gonorrhoeae, read-out: Minimum Inhibitory Concentration, WHO L
Description: Liquid broth-based assays were used for antibacterial testing of PBP inhibitors in Neisseria gonorrhoeae. Briefly, cryo-preserved bacterial cultures of clinical strains were streaked for isolation on Chocolate Agar (72 g/L (2×) GC Agar Base (BD #228950) and 2% (2×) Hemoglobin was autoclaved at 121° C. for 20 minutes to sterilize. Once cooled to ˜50° C. the 2×GC Agar Base and 2× Hemoglobin solutions are combined and 1% IsoVitaleX Enrichment (BD #211876) was added to the solution). Strains were incubated at 36° C. and 5% CO2 to allow growth of colonies, 24 hours before inoculum preparation. 2-fold serial dilutions of test compounds were conducted in a 96 well plate with a final volume of 75 μL per well at 2-fold the final desired concentration in Fastidious broth (Remel #R07664). For preparation of assay inoculum, a direct suspension was prepared by aseptically swabbing 10-15 colonies from agar plates into culture tubes containing 2 mL of fresh sterile saline. After the dilution plates were set up, direct suspensions were then diluted in a cuvette containing sterile saline and the optical density was measured at 600 nm. Inocula were diluted such that 75 μL of this culture in Fastidious broth results in a starting bacterial concentration of 5×10^5 CFU/mL when added to the dilution plates. The plates were incubated for ˜24 hours at 36° C. and 5% CO2.

P. aeruginosa CDC-0090 = experiment: microbe, parasite or virus in culture; assay type: cell-based; conditions: Pseudomonas aeruginosa, CDC0090, read-out: Minimum inhibitory concentration, P. aeruginosa CDC-0090
N. gonorrhoeae WHO K = experiment: Liquid broth MIC in Fastidious broth; conditions: Neisseria gonorrhoeae, read-out: Minimum Inhibitory Concentration, WHO K
N. gonorrhoeae WHO Q = experiment: Liquid broth MIC in Fastidious broth; conditions: Neisseria gonorrhoeae, read-out: Minimum Inhibitory Concentration, WHO Q
P. aeruginosa CDC-0054 = experiment: microbe, parasite or virus in culture; assay type: cell-based; conditions: Pseudomonas aeruginosa, CDC0054, read-out: Minimum inhibitory concentration, P. aeruginosa CDC-0054
[3] = tested on: P. aeruginosa (ΔmexAB-oprM); experiment: Broth microdilution MIC in iron-depleted CAMHB (IDM); assay type: cell-based; conditions: Pseudomonas aeruginosa; iron-depleted CAMHB (IDM); […]; read-out: Minimum inhibitory concentration, P. aeruginosa ΔmexAB-oprM
[4] = tested on: B. humptydooensis ATCC BAA-2767; experiment: microbe, parasite or virus in culture; assay type: cell-based; conditions: Burkholderia humptydooensis, ATCCBAA2767, read-out: Minimum inhibitory concentration (MIC), B. humptydooensis ATCC BAA-2767
A. baumannii CDC-0045 = experiment: microbe, parasite or virus in culture; assay type: cell-based; conditions: Acinetobacter baumannii, CDC0045, read-out: MIC, A. baumannii CDC-0045

T1 sequence (P0AD68 1-577): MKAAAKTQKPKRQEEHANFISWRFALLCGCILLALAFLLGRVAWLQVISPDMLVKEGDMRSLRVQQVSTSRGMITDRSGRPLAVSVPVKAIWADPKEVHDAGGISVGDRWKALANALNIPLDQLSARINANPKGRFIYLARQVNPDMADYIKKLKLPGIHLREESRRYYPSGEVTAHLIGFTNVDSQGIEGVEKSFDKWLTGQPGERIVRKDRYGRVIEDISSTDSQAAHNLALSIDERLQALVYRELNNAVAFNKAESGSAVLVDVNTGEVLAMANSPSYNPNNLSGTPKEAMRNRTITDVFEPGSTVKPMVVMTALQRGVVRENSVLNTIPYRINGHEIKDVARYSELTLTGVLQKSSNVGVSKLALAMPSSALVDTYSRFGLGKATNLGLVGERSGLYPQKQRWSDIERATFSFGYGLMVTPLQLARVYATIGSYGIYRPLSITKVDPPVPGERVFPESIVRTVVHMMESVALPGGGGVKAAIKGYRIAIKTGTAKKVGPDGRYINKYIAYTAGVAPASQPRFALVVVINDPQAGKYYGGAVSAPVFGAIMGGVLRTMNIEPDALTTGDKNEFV

| SMILES | MIC [1] [µg/mL] | EC50 [2] [µM] | MIC (N. gonorrhoeae WHO L) [µg/mL] | MIC (P. aeruginosa CDC-0090) [µg/mL] | MIC (N. gonorrhoeae WHO K) [µg/mL] | MIC (N. gonorrhoeae WHO Q) [µg/mL] | MIC (P. aeruginosa CDC-0054) [µg/mL] | MIC [3] [µg/mL] | MIC [4] [µg/mL] | MIC (A. baumannii CDC-0045) [µg/mL] |
| --- | --- | --- | --- | --- | --- | --- | --- | --- | --- | --- |
| O=C(NCCS(=O)(=O)N1CCN(C(=O)N[C@H](C(=O)N[C@H]2Cc3ccc(F)c(C(=O)O)c3OB2O)c2cc(F)c(O)c(O)c2Cl)C1=O)c1nccs1 [Example 263, (R)-3-((S)-2-(2-chloro-5-fluoro-3,4-dihydroxyphenyl)-2-(2-oxo-3-((2-(thiazole-2-carboxamido)ethyl)sulfonyl)imidazolidine-1-carboxamido)acetamido)-7-fluoro-2-hydroxy-3,4-dihydro-2H-benzo[e][1,2]oxaborinine-8-carboxylic acid] | 8 to 16 (≈ 10.4 to 20.7 µM) | > 250 | > 64 | 32 to 64 (≈ 41.4 to 82.8 µM) | > 64 | > 64 | 8 to 16 (≈ 10.4 to 20.7 µM) | 8 to 16 (≈ 10.4 to 20.7 µM) | 8 to 16 (≈ 10.4 to 20.7 µM) | 32 to 64 (≈ 41.4 to 82.8 µM) |
| O=C(NCCS(=O)(=O)N1CCN(C(=O)N[C@@H](C(=O)N[C@H]2Cc3ccc(F)c(C(=O)O)c3OB2O)c2cc(F)c(O)c(O)c2Cl)C1=O)c1nccs1 [Example 264, (R)-3-((R)-2-(2-chloro-5-fluoro-3,4-dihydroxyphenyl)-2-(2-oxo-3-((2-(thiazole-2-carboxamido)ethyl)sulfonyl)imidazolidine-1-carboxamido)acetamido)-7-fluoro-2-hydroxy-3,4-dihydro-2H-benzo[e][1,2]oxaborinine-8-carboxylic acid] | < 1 | < 10 | > 64 | < 1 | 16 to 32 (≈ 20.7 to 41.4 µM) | 16 to 32 (≈ 20.7 to 41.4 µM) | < 1 | < 1 | 2 to 4 (≈ 2.59 to 5.18 µM) | < 1 |
| O=C(O)c1c(F)ccc2c1OB(O)[C@@H](NC(=O)C(NC(=O)N1CCN(S(=O)(=O)CCNC(=O)[C@@H]3CCCN3)C1=O)c1cc(F)c(O)c(O)c1Cl)C2 (stereo partly drawn) [Example 265, (3R)-3-(2-(2-chloro-5-fluoro-3,4-dihydroxyphenyl)-2-(2-oxo-3-((2-((S)-pyrrolidine-2-carboxamido)ethyl)sulfonyl)imidazolidine-1-carboxamido)acetamido)-7-fluoro-2-hydroxy-3,4-dihydro-2H-benzo[e][1,2]oxaborinine-8-carboxylic acid] | < 1 | 10 to 50 | > 64 | 2 to 4 (≈ 2.64 to 5.27 µM) | > 64 | 16 to 32 (≈ 21.1 to 42.2 µM) | 2 to 4 (≈ 2.64 to 5.27 µM) | < 1 | < 1 | < 1 |
| O=C(NCCS(=O)(=O)N1CCN(C(=O)NC(C(=O)N[C@H]2Cc3ccc(F)c(C(=O)O)c3OB2O)c2cc(F)c(O)c(O)c2Cl)C1=O)Nc1cccc(O)c1 (stereo partly drawn) [Example 266, (3R)-3-(2-(2-chloro-5-fluoro-3,4-dihydroxyphenyl)-2-(3-((2-(3-(3-hydroxyphenyl)ureido)ethyl)sulfonyl)-2-oxoimidazolidine-1-carboxamido)acetamido)-7-fluoro-2-hydroxy-3,4-dihydro-2H-benzo[e][1,2]oxaborinine-8-carboxylic acid] | 2 to 4 (≈ 2.51 to 5.02 µM) | < 10 | > 64 | 2 to 4 (≈ 2.51 to 5.02 µM) | 16 to 32 (≈ 20.1 to 40.2 µM) | 16 to 32 (≈ 20.1 to 40.2 µM) | 2 to 4 (≈ 2.51 to 5.02 µM) | < 1 | 8 to 16 (≈ 10 to 20.1 µM) | < 1 |
| O=C(NCCS(=O)(=O)N1CCN(C(=O)N[C@@H](C(=O)N[C@H]2Cc3ccc(F)c(C(=O)O)c3OB2O)c2cc(F)c(O)c(O)c2Cl)C1=O)Nc1cccnc1 [Example 267, (R)-3-((R)-2-(2-chloro-5-fluoro-3,4-dihydroxyphenyl)-2-(2-oxo-3-((2-(3-(pyridin-3-yl)ureido)ethyl)sulfonyl)imidazolidine-1-carboxamido)acetamido)-7-fluoro-2-hydroxy-3,4-dihydro-2H-benzo[e][1,2]oxaborinine-8-carboxylic acid] | 2 to 4 (≈ 2.56 to 5.12 µM) | < 10 | > 64 | 2 to 4 (≈ 2.56 to 5.12 µM) | > 64 | 16 to 32 (≈ 20.5 to 40.9 µM) | 2 to 4 (≈ 2.56 to 5.12 µM) | < 1 | 2 to 4 (≈ 2.56 to 5.12 µM) | < 1 |
| O=C(NCCCS(=O)(=O)N1CCN(C(=O)NC(C(=O)N[C@H]2Cc3ccc(F)c(C(=O)O)c3OB2O)c2cc(F)c(O)c(O)c2Cl)C1=O)c1ccccc1 (stereo partly drawn) [Example 268, (3R)-3-(2-(3-((3-benzamidopropyl)sulfonyl)-2-oxoimidazolidine-1-carboxamido)-2-(2-chloro-5-fluoro-3,4-dihydroxyphenyl)acetamido)-7-fluoro-2-hydroxy-3,4-dihydro-2H-benzo[e][1,2]oxaborinine-8-carboxylic acid] | > 128 | < 10 | > 64 | 2 to 4 (≈ 2.56 to 5.13 µM) | > 64 | 16 to 32 (≈ 20.5 to 41 µM) | 8 to 16 (≈ 10.3 to 20.5 µM) | < 1 | > 128 | 2 to 4 (≈ 2.56 to 5.13 µM) |
| O=C(NCCCS(=O)(=O)N1CCN(C(=O)NC(C(=O)N[C@H]2Cc3ccc(F)c(C(=O)O)c3OB2O)c2cc(F)c(O)c(O)c2Cl)C1=O)c1ccc(O)cc1 (stereo partly drawn) [Example 269, (3R)-3-(2-(2-chloro-5-fluoro-3,4-dihydroxyphenyl)-2-(3-((3-(4-hydroxybenzamido)propyl)sulfonyl)-2-oxoimidazolidine-1-carboxamido)acetamido)-7-fluoro-2-hydroxy-3,4-dihydro-2H-benzo[e][1,2]oxaborinine-8-carboxylic acid] | > 128 | < 10 | > 64 | 2 to 4 (≈ 2.51 to 5.03 µM) | > 64 | 16 to 32 (≈ 20.1 to 40.2 µM) | 2 to 4 (≈ 2.51 to 5.03 µM) | < 1 | > 128 | < 1 |
| O=C(NCCCS(=O)(=O)N1CCN(C(=O)N[C@H](C(=O)N[C@H]2Cc3ccc(F)c(C(=O)O)c3OB2O)c2cc(F)c(O)c(O)c2Cl)C1=O)c1cccc(O)c1 [Example 270, (R)-3-((S)-2-(2-chloro-5-fluoro-3,4-dihydroxyphenyl)-2-(3-((3-(3-hydroxybenzamido)propyl)sulfonyl)-2-oxoimidazolidine-1-carboxamido)acetamido)-7-fluoro-2-hydroxy-3,4-dihydro-2H-benzo[e][1,2]oxaborinine-8-carboxylic acid] | > 128 | 50 to 250 | > 64 | 32 to 64 (≈ 40.2 to 80.4 µM) | > 64 | > 64 | > 128 | < 1 | > 128 | 8 to 16 (≈ 10.1 to 20.1 µM) |
| O=C(NCCCS(=O)(=O)N1CCN(C(=O)N[C@@H](C(=O)N[C@H]2Cc3ccc(F)c(C(=O)O)c3OB2O)c2cc(F)c(O)c(O)c2Cl)C1=O)c1cccc(O)c1 [Example 271, (R)-3-((R)-2-(2-chloro-5-fluoro-3,4-dihydroxyphenyl)-2-(3-((3-(3-hydroxybenzamido)propyl)sulfonyl)-2-oxoimidazolidine-1-carboxamido)acetamido)-7-fluoro-2-hydroxy-3,4-dihydro-2H-benzo[e][1,2]oxaborinine-8-carboxylic acid] | 8 to 16 (≈ 10.1 to 20.1 µM) | < 10 | > 64 | 2 to 4 (≈ 2.51 to 5.03 µM) | > 64 | 16 to 32 (≈ 20.1 to 40.2 µM) | 2 to 4 (≈ 2.51 to 5.03 µM) | < 1 | 2 to 4 (≈ 2.51 to 5.03 µM) | < 1 |
| O=C(NCCCS(=O)(=O)N1CCN(C(=O)NC(C(=O)N[C@H]2Cc3ccc(F)c(C(=O)O)c3OB2O)c2cc(F)c(O)c(O)c2Cl)C1=O)c1ccncc1 (stereo partly drawn) [Example 272, (3R)-3-(2-(2-chloro-5-fluoro-3,4-dihydroxyphenyl)-2-(3-((3-(isonicotinamido)propyl)sulfonyl)-2-oxoimidazolidine-1-carboxamido)acetamido)-7-fluoro-2-hydroxy-3,4-dihydro-2H-benzo[e][1,2]oxaborinine-8-carboxylic acid] | 2 to 4 (≈ 2.56 to 5.12 µM) | < 10 | > 64 | 2 to 4 (≈ 2.56 to 5.12 µM) | > 64 | 16 to 32 (≈ 20.5 to 41 µM) | 8 to 16 (≈ 10.2 to 20.5 µM) | < 1 | 2 to 4 (≈ 2.56 to 5.12 µM) | < 1 |
| O=C(NCCCS(=O)(=O)N1CCN(C(=O)NC(C(=O)N[C@H]2Cc3ccc(F)c(C(=O)O)c3OB2O)c2cc(F)c(O)c(O)c2Cl)C1=O)c1cccnc1 (stereo partly drawn) [Example 273, (3R)-3-(2-(2-chloro-5-fluoro-3,4-dihydroxyphenyl)-2-(3-((3-(nicotinamido)propyl)sulfonyl)-2-oxoimidazolidine-1-carboxamido)acetamido)-7-fluoro-2-hydroxy-3,4-dihydro-2H-benzo[e][1,2]oxaborinine-8-carboxylic acid] | 2 to 4 (≈ 2.56 to 5.12 µM) | < 10 | > 64 | < 1 | > 64 | 16 to 32 (≈ 20.5 to 41 µM) | 2 to 4 (≈ 2.56 to 5.12 µM) | < 1 | 2 to 4 (≈ 2.56 to 5.12 µM) | < 1 |
